In patent US20090312297A1, “METHODS FOR TREATING HYPERCHOLESTEROLEMIA AND ATHEROSCLEROSIS” (PRESIDENT AND FELLOWS OF HARVARD COLLEGE, priority 2006, published 2009):

Columns and labels:
Assay type in all cases: in vivo, mouse
[1] = tested on: apoE−/− mice; assay: Atherosclerotic lesions in aortas (Oil-Red-O staining) of apoE−/− mice on western diet; details: for atherosclerotic lesion area per full aorta: p<0.05 vs. control, FIG. 2(a)
Method: (§1) apoE−/− mice (a commonly used model of hypercholesterolemia and atherosclerosis) were purchased from Jackson Labs. At 6 weeks of age, the mice were placed on a western diet (to further increase cholesterol levels and vascular lesions) and treatments with either phosphate buffered saline (PBS) (vehicle) or TUDCA (500 mg/kg/day, single dose, i.p.) were started.
After 3 months of western diet and treatment, mice were sacrificed and aortas were dissected and fixed in 10% buffered formalin and stained with Oil-Red-O which stains lipids.
(§2) apoE−/− mice were purchased from Jackson Labs. At 6 weeks of age, the mice were placed on a western diet and treatments with either phosphate buffered saline (PBS) (vehicle); TUDCA (50 mg/kg/day or 500 mg/kg/day, single dose, i.p.); or 4-PBA (10 mg/kg/day, 200 mg/kg/day, or 1 g/kg/day, single dose, oral gavage) were started.
After 3 months of western diet and treatment, mice were sacrificed and aortas were dissected and fixed in 10% buffered formalin and stained with Oil-Red-O. The amount of atherosclerotic lesion area per full aorta was determine and is expressed as a percent as shown in FIG. 2(a). Mice receiving vehicle (PBS) developed robust atherosclerotic lesions in the aortic arch as well as in the thoracic and abdominal parts of the aorta (0.25%±0.06). […] PBA administration at a dose of 10 mg/kg/day was also found to be effective in reducing formation of atherosclerotic lesions (0.09%±0.03, n=4, p<0.05 vs. control).

[2] = tested on: apoE−/− mice; assay: Lipoprotein profile analysis of serum by HPLC in apoE−/− mice on western diet; details: Example 2, 3 months
Method: as §2
(§3) Blood samples were obtained from the animals described above. Lipoprotein profiles analysis was performed by HPLC (FIG. 2b), and total cholesterol levels (FIG. 2c). […] Moreover, the ability to reduce the development of atherosclerotic lesions is not dependent on the ability of a compound to reduce cholesterol.

[3] = tested on: apoE−/− mice; assay: Serum total cholesterol levels in apoE−/− mice on western diet; details: 3 months
Method: as §1
Blood samples were obtained from the animals described above and serum cholesterol levels were determined by the Piccolo automated device with lipid panel (Abaxis, Calif.).
as §2, §3

Structure (SMILES) | amount of atherosclerotic lesion relative to control treated animals ([1]; Example 1, about 10 mg/kg/day, similar conditions) | atherosclerotic lesion area per full aorta ([1]; Example 2, 10 mg/kg/day oral gavage, 3 months, n=4) | reduction of formation of atherosclerotic lesions ([1]; Example 2, higher doses (200 mg/kg/day, 1 g/kg/day), oral gavage, 3 months) | total cholesterol or specific lipoprotein levels ([2]; 4-PBA oral gavage (10 mg/kg in FIG. 2)) | Oil-Red-O staining of aortas ([1]; Example 1, 500 mg/kg/day, single dose, i.p., 3 months of western diet and treatment, vs PBS) | atherosclerotic lesion area per full aorta ([1]; Example 2, 50 mg/kg/day i.p., 3 months, n=3) | atherosclerotic lesion area per full aorta ([1]; Example 2, 500 mg/kg/day i.p., 3 months, n=3) | serum cholesterol levels ([3]; Example 1, 500 mg/kg/day, single dose, i.p., Piccolo lipid panel, FIG. 1, vs PBS) | total cholesterol ([3]; Example 2, 500 mg/kg/day i.p., FIG. 2c) | total cholesterol or specific lipoprotein levels ([2]; 50 mg/kg/day i.p.) | HDL ([2]; 500 mg/kg/day i.p., FIG. 2b) | LDL ([2]; 500 mg/kg/day i.p., FIG. 2b) | VLDL ([2]; 500 mg/kg/day i.p., FIG. 2b)
O=C(O)CCCc1ccccc1 [PBA, 4-phenyl butyrate] | effective in reducing the amount of atherosclerotic lesion | 0.09%±0.03 | no similar reduction was observed | no significant changes | – | – | – | – | – | – | – | – | –
C[C@H](CCC(=O)NCCS(=O)(=O)O)[C@H]1CC[C@H]2[C@@H]3[C@@H](O)C[C@@H]4C[C@H](O)CC[C@]4(C)[C@H]3CC[C@]12C [TUDCA, tauroursodeoxycholic acid] | – | – | – | – | PBS treated animals had substantially more Oil-Red-O staining | 0.03%±0.01 | 0.01%±0.01 | significantly (p<0.001) lowered | significant decrease | no significant changes | marked increase | significant decrease | significant decrease
